target: T1, PEP carboxylase from F. trinervia (C4 PEPC) (Flaveria trinervia, UniProt P30694); assay: Spectrophotometric coupled assay with malate dehydrogenase, C4 PEP carboxylase; type: biochemical; settings: range of concentrations, triplicate; C3 PEPC activity compared at the C4 IC50 concentration (figure legend)
T1 construct: histidine tag; made in house; host or cells: E. coli
T1 sequence (P30694 1-966): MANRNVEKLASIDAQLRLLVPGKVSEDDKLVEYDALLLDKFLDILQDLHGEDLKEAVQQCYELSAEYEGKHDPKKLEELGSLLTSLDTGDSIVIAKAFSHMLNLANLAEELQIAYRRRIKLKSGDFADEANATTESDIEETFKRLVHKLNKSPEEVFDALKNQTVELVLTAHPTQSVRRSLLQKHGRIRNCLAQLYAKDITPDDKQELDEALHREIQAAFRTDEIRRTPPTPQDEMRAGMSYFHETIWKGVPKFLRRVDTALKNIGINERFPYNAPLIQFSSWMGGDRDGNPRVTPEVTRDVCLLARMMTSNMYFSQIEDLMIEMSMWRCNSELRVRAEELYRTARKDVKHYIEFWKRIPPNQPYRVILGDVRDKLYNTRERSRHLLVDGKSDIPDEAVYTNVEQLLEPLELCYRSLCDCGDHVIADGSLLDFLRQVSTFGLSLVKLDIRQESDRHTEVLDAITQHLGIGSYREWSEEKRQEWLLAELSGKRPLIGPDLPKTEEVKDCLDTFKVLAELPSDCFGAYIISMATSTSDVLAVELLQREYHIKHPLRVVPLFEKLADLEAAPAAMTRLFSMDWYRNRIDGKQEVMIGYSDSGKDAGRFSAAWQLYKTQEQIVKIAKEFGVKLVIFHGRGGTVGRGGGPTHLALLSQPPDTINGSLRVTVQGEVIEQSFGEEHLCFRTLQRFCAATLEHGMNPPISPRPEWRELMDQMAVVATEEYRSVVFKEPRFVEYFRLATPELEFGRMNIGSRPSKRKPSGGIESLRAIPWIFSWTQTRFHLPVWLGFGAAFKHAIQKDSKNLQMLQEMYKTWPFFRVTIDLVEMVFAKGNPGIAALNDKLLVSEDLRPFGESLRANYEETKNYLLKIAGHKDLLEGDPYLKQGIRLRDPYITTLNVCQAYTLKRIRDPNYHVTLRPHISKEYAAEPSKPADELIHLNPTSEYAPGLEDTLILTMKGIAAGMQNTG
Text: How to determine the activity of a PEP carboxylase is well known in the art. E.g, the formation of oxaloacetate can be determined spectrophotometrically, e.g., in a malate dehydrogenase coupled system. The reaction velocity can be measured as a decrease in A340 resulting from the oxidation of NADH.
Inhibition of purified PEP carboxylases from F. pringlei and F. trinervia by compounds selected from the VDS was monitored by a spectrophotometric coupled assay with malate dehydrogenase which reduces the oxaloacetate formed by PEP carboxylase to malate. The simultaneous oxidation of NADH is followed at 340 nm with standard optical equipment. The concentration of the inhibitors selected from the VDS was varied in the coupled assay to determine the half maximal inhibitory concentration (IC50).

Row | Molecule | Inhibition of a C4-PEPC
1 | O=C(/C=C/c1ccc(O)c(O)c1)c1ccc(O)cc1O [butein] | Selective inhibition
2 | COc1cc2ncc(-c3ccc(O)c(O)c3)nc2cc1OC [2-(3,4-Dihydroxyphenyl)-6,7-dimethoxyquinoxaline] | Inhibition
3 | catechin | Inhibition
4 | O=C(O)c1cc(/C=C/c2cc(O)ccc2O)ccc1O [1-(3′-carboxy-4′-hydroxyphenyl)-2-(2,5-dihydroxyphenl(ethene)] | Selective inhibition

target: pyruvate phosphate dikinase (PPDK); assay: not given; settings: isolated enzyme; read-out: half maximal inhibitory concentration (IC50); cited from earlier work

Row | Molecule | IC50
5 | C/C=C(\C)c1cc(O)c(C)c2c1Oc1cc(O)cc(C)c1C(=O)O2 [unguinol] | 40 µM

system: PEP carboxylase from C4 plant Amaranthus viridis; assay: not given; settings: cited from earlier work

Row | Molecule | inhibition of PEP carboxylase from Amaranthus viridis
6 | baicalein/baicalin | inhibited
7 | O=c1c(O)c(-c2ccc(O)c(O)c2)oc2cc(O)ccc12 [fisetin] | inhibited
8 | O=c1c(O)c(-c2ccc(O)cc2)oc2cc(O)cc(O)c12 [kaempferol] | inhibited
9 | O=c1c(O)c(-c2cc(O)c(O)c(O)c2)oc2cc(O)cc(O)c12 [myricetin] | inhibited
10 | O=c1c(O)c(-c2ccc(O)c(O)c2)oc2cc(O)cc(O)c12 [quercetin] | inhibited
11 | O=c1c(O)c(-c2ccc(O)cc2O)oc2cc(O)cc(O)c12 [morin] | inhibited
